Where two headings read alike, the source gives them in different places. Marks after values point to notes of the source that are not given here.
Experiments:
[1] = system: A549 non-small cell lung carcinoma; assay: Anchorage Dependent Growth Monolayer Assay (ADGMA), A549; format: cell-based, human; details: Homo sapiens, A549, 72 h; 3-day exposure, MTS readout; read-out: IC50 (average±S.D.) A549
Protocol: (§1) As indicated above, all of the compounds of formula I, and their corresponding pharmaceutically acceptable acid addition salts, are anti-tumor agents and are, therefore, useful in inhibiting the growth of various lymphomas, sarcomas, carcinomas, myelomas, and leukemia cell lines.
(§2) The ADGMA compares the number of viable cells following a 3-day exposure to a test compound relative to a number of cells present at the time the test compound was added. […] The absorbance at 490 nm (A490) of the formazan derivative is proportional to the number of viable cells. The IC50 for a test compound is the concentration of compound required to reduce the final cell number to 50% of the final control cell number. If cell proliferation is inhibited, the assay further defines compounds as cytostatic (cell number after 3-day compound incubation >cell number at time of compound addition) or cytotoxic (cell number after 3-day compound incubation <cell number at time of compound addition).
(§3) A549, HCT-116 and PC-3 cells were maintained in RPMI 1640 containing 5% FBS, […], 1 nM β-estradiol, 1 nM testosterone, 100 units/mL penicillin and 100 ug/mL streptomycin.
(§4) Cell lines are trypsinized and counted using a Coulter counter to determine plating densities. Cells are then plated in their respective maintenance media (100 μL/well) in 96 well plates at the following densities: MDA-MB-435, 3,000 cells/well; A549 and HCT-116, 700 cells/well; are PC-3, 2500 cells/well. The number of cells plates as determined in preliminary experiments, results in cell densities of 75-90% of confluency by 4 days after plating. Initial cell densities, assayed one day after plating, are roughly 0.15-0.20 absorbance units greater than the media blank. Ninety-six well plates are seeded on day 0 and the test compounds are added on day 1. A control plate is created for each cell line that receives media only in row A and cells in row B. One day following plating, test compounds are added (in a final volume of 100 μL) to the test plates. Control plates receive 10 μL MTS mixture (prepared fresh on day of addition to cell plates at a ratio of 10 μL of a 0.92 mg/mL solution of PMS to a 190 μL of a 2 mg/mL solution of MTS) and 100 μL media. A490 of control plates is read 4 h after MTS addition to determine initial cell density values for each cell line. Three days after addition of test compound, 10 μL/well of MTS mixture is added to the test plates and A490 is read 4 h later. A490 values for wells containing cells are corrected for media absorbance, then normalized to initial density readings to determine percent net growth. IC50 values are determined from graphs of percent net growth as a function of compound concentration. Percent net growth is calculated as (Cell+Drug A490−Initial A490/Cell+Drug Vehicle A490−Initial A490).

HCT-116 colon carcinoma = assay: Anchorage Dependent Growth Monolayer Assay (ADGMA), HCT-116; format: cell-based, human; details: Homo sapiens, HCT-116, 72 h; 3-day exposure, MTS readout; read-out: IC50 (average±S.D.) HCT-116
Protocol: as §1, §2, §3, §4

PC-3 prostate carcinoma = assay: Anchorage Dependent Growth Monolayer Assay (ADGMA), PC-3; format: cell-based, human; details: Homo sapiens, 72 h; 3-day exposure, MTS readout; read-out: IC50 (average±S.D.) PC-3
Protocol: as §1, §2, §3, §4

[2] = system: MDA-MB-435 tumor xenografts; assay: MDA-MB-435 breast carcinoma xenograft model; format: in vivo, athymic (nu/nu) mice
Protocol: Positive controls are carried out with doxorubicin administered 3 times per week i.v.
The following results were obtained for compounds of Ex.1-Ex.12 tested against MDA-MB-435 tumor xenografts 3×/week for 3 weeks: […]

A549 tumor xenografts = system: A549 tumor xenografts
From the text: Utilizing this model, one can measure the ability of test compounds to inhibit the growth of human tumor xenografts growing subcutaneously (s.c.) in athymic nude mice. The histologic tumor types employed were MDA-MB-435 breast, A549 non-small cell lung, HCT-116 colon and PC-3 prostate carcinomas.
A549 non-small cell lung carcinoma xenograft model: Briefly, 10 million cells were implanted s.c. into the right flank of athymic (nu/nu) mice, and were allowed to grow until a mass of approximately 120 mm^3 was established. The test compounds are administered three times per week intravenously (i.v.) for three weeks in 5% dextrose, 10%DMSO in water. The test compounds are administered in dose-response fashion in order to evaluate and document the full potential range of activity (efficacy and toxicity) for a given compound. Positive controls are carried out with mitomycin C administered 3 times per week intraperitioneally (i.p.).
Toxicity was monitored by recording average group body weights twice weekly, and by daily observation of general health. Efficacy was monitored by taking measurements of tumor length, width, and depth weekly using digital calipers coupled to automated data collectors. Mean tumor volume (MTV) at initiation of therapy was subtracted from final MTV in order to express the actual tumor growth during treatment (ΔMTV). Anti-tumor activity was expressed as %T/C (ΔMTV of treated group÷ΔMTV of control group×100). Regressions were calculated using the formula: (T/T0−1)×100%, where T is the tumor volume for the treatment group at the end of the experiment, and T0 is the tumor volume at the beginning of the experiment. Statistical significance was evaluated using a one-tailed Student's t-test (p<0.05).

HCT-116 tumor xenografts = assay: HCT-116 colon carcinoma xenograft model; format: in vivo, athymic (nu/nu) mice
Protocol: Positive controls are carried out with 5-fluorouracil administered 1 time per week i.v.

[3] = system: MDA-MB-435 breast carcinoma; assay: Anchorage Dependent Growth Monolayer Assay (ADGMA), MDA-MB-435; format: cell-based, human; details: Homo sapiens, MDA-MB-435, 72 h; 3-day exposure, MTS readout; read-out: IC50 (average±S.D.) MDA-MB-435
Protocol: as §1, §2
The MDA-MB-435 breast carcinoma line was obtained from the American Type Culture Collection (ATCC) and used between passages 4-20 following thawing. MDA-MB-435 breast carcinoma was maintained and plated in DME/F12 medium containing 10% fetal bovine serum, 15 mM HEPES (pH=7.4), 100 units/mL penicillin, and 100 μg/mL streptomycin.
as §4

PC-3 tumor xenografts = assay: PC-3 prostate carcinoma xenograft model; format: in vivo, athymic (nu/nu) mice
[4] = 10 μmol/kg i.v. 3×/week for 3 weeks
[5] = 33 μmol/kg i.v. 3×/week for 3 weeks
[6] = 100 μmol/kg i.v. 3×/week for 3 weeks

| SMILES | IC50 [1] | IC50 (HCT-116 colon carcinoma) | IC50 (PC-3 prostate carcinoma) | % T/C [2, 4] | Dead/Total [2, 4] | % T/C [2, 5] | Dead/Total [2, 5] | % T/C (A549 tumor xenografts; [5]) | Dead/Total (A549 tumor xenografts; [5]) | Δ MTV (A549 tumor xenografts; [5]) | Dead/Total (A549 tumor xenografts; [6]) | Δ MTV (A549 tumor xenografts; [6]) | % T/C (HCT-116 tumor xenografts; [4]) | Dead/Total (HCT-116 tumor xenografts; [4]) | Δ MTV (HCT-116 tumor xenografts; [4]) | % T/C (HCT-116 tumor xenografts; [5]) | Dead/Total (HCT-116 tumor xenografts; [5]) | Δ MTV (HCT-116 tumor xenografts; [5]) | % T/C (HCT-116 tumor xenografts; [6]) | Dead/Total (HCT-116 tumor xenografts; [6]) | other results |
| --- | --- | --- | --- | --- | --- | --- | --- | --- | --- | --- | --- | --- | --- | --- | --- | --- | --- | --- | --- | --- | --- |
| CO[C@@H](C(=O)N[C@H]1CC[C@@H](OC(=O)CCc2cccnc2)CNC1=O)[C@H](O)[C@@H](O)[C@H](O)/C=C/C(C)(C)C [Ex. 5, (2R, 3R, 4S, 5R, 6E)-3,4,5-Trihydroxy-2-methoxy-8,8-dimethyl-N-[(3S, 6R)-hexahydro-2-oxo-6-(1-oxo-3-[3-pyridyl]propoxy)-2H-azepin-3-yl]non-6-enamide] | 1.04 ± 0.758 µM | 0.464 ± 0.142 µM | 0.348 ± 0.026 µM | 92% | 0/8 | 44* % | 0/8 | 46% | 0/8 | 35 mm^3 | 0/8 | 18 mm^3 | 93% | 0/8 | 376 mm^3 | 67* % | 0/8 | 270 mm^3 | 28* % | 0/8 | % T/C (A549 tumor xenografts; [4]): 50%; Dead/Total (A549 tumor xenografts; [4]): 0/8; Δ MTV (A549 tumor xenografts; [4]): 38 mm^3; % T/C (A549 tumor xenografts; [6]): 24* %; Δ MTV (HCT-116 tumor xenografts; [6]): 111 mm^3 |
| CO[C@@H](C(=O)N[C@H]1CC[C@@H](OC(=O)C2CCCCC2)CNC1=O)[C@H](O)[C@@H](O)[C@H](O)/C=C/C(C)(C)C [Ex. 1, (2R, 3R, 4S, 5R, 6E)-3,4,5-Trihydroxy-2-methoxy-8,8-dimethyl-N-[(3S, 6R)-hexahydro-2-oxo-6-(cyclohexylcarbonyl)oxy-2H-azepin-3-yl]non-6-enamide] | 0.078 ± 0.038 µM | 0.041 ± 0.003 µM | 0.039 ± 0.013 µM | 61* % | 0/8 | 24* % | 0/8 | 38% | 0/8 | 29 mm^3 | 1/8 | 11 mm^3 | 89% | 0/8 | 360 mm^3 | 35* % | 0/8 | 142 mm^3 | 10* % | 0/8 | IC50 [3]: 0.041 ± 0.026 µM; % regression [2, 6]: 29 regression* %; Dead/Total [2, 6]: 0/8; Δ MTV [2, 6]: −11 mm^3; % T/C (A549 tumor xenografts; [4]): 42%; Dead/Total (A549 tumor xenografts; [4]): 0/8; Δ MTV (A549 tumor xenografts; [4]): 32 mm^3; % T/C (A549 tumor xenografts; [6]): 14* %; Δ MTV (HCT-116 tumor xenografts; [6]): 42 mm^3; % T/C (PC-3 tumor xenografts; [4]): 87%; Dead/Total (PC-3 tumor xenografts; [4]): 0/7; Δ MTV (PC-3 tumor xenografts; [4]): 1931 mm^3; % T/C (PC-3 tumor xenografts; [5]): 32%; Dead/Total (PC-3 tumor xenografts; [5]): 0/8; Δ MTV (PC-3 tumor xenografts; [5]): 718 mm^3; % T/C (PC-3 tumor xenografts; [6]): 8* %; Dead/Total (PC-3 tumor xenografts; [6]): 1/8; Δ MTV (PC-3 tumor xenografts; [6]): 185 mm^3 |
| CO[C@@H](C(=O)N[C@H]1CC[C@@H](OC(=O)CCc2ccccc2)CNC1=O)[C@H](O)[C@@H](O)[C@H](O)/C=C/C(C)(C)C [Ex. 4, (2R, 3R, 4S, 5R, 6E)-3,4,5-Trihydroxy-2-methoxy-8,8-dimethyl-N-[(3S, 6R)-hexahydro-2-oxo-6-(1-oxo-3-phenylpropoxy)-2H-azepin-3-yl]non-6-enamide] | 0.02 ± 0.009 µM | 0.007 ± 0.003 µM | 0.007 ± 0.004 µM | 53* % | 0/8 | 12* % | 0/8 | 17* % | 0/8 | 13 mm^3 | 1/8 | −10 mm^3 | 70* % | 0/8 | 280 mm^3 | 22* % | 0/8 | 87 mm^3 | 11* % | 1/8 | IC50 [3]: 0.012 ± 0.014 µM; % regression [2, 6]: 58 regression* %; Dead/Total [2, 6]: 0/8; Δ MTV [2, 6]: −23 mm^3; % regression (A549 tumor xenografts; [6]): 22 regression* %; Δ MTV (HCT-116 tumor xenografts; [6]): 44 mm^3; % T/C (PC-3 tumor xenografts; [4]): 77%; Dead/Total (PC-3 tumor xenografts; [4]): 0/8; Δ MTV (PC-3 tumor xenografts; [4]): 1722 mm^3; % T/C (PC-3 tumor xenografts; [5]): 29%; Dead/Total (PC-3 tumor xenografts; [5]): 0/8; Δ MTV (PC-3 tumor xenografts; [5]): 638 mm^3; % T/C (PC-3 tumor xenografts; [6]): 4* %; Dead/Total (PC-3 tumor xenografts; [6]): 0/8; Δ MTV (PC-3 tumor xenografts; [6]): 100 mm^3 |
